# Where “and” joins values, the source holds several entries; their conditions need not be identical. Equal values may be shown once. Read-outs that look alike come from different tables or passages of the source.
# Columns and labels:
# SARS-CoV-2 PLpro = SARS-CoV-2 PLpro (Severe acute respiratory syndrome coronavirus 2, UniProt P0DTD1); experiment: biochemical
# SARS-CoV-2 = experiment: microbe, parasite or virus in culture; format: cell-based, SARS-CoV-2 (nCoV/Washington/1/2020) in Vero E6 cells; conditions: for inhibition of virus replication: Vero E6, SARS-CoV-2; for Percent Spike Positive Cells: relative to DMSO treated cells, single replicates
compound,measurement,setting,value
"C=CC(=O)Nc1ccc(C)c(C(=O)N[C@H](C)c2cccc3ccccc23)c1 [Compound 3, 5-acrylamide-2-methyl-N-[(1R)-1-naphthalen-1-ylethyl]benzamide]","PLpro assay signal (source data Figure 2, single replicates)","SARS-CoV-2 PLpro; Log(M) -3.69897, listed as 3 (Snyder530)",91 and 88 and 87
same,"PLpro assay signal (source data Figure 2, single replicates)","SARS-CoV-2 PLpro; Log(M) -4, listed as 3 (Snyder530)",107 (2×) and 106
same,"PLpro assay signal (source data Figure 2, single replicates)","SARS-CoV-2 PLpro; Log(M) -4.39794, listed as 3 (Snyder530)",175 (2×) and 163
same,"PLpro assay signal (source data Figure 2, single replicates)","SARS-CoV-2 PLpro; Log(M) -4.69897, listed as 3 (Snyder530)",282 and 274 and 281
same,"PLpro assay signal (source data Figure 2, single replicates)","SARS-CoV-2 PLpro; Log(M) -5.09691, listed as 3 (Snyder530)",401 and 387 and 371
same,"PLpro assay signal (source data Figure 2, single replicates)","SARS-CoV-2 PLpro; Log(M) -5.39794, listed as 3 (Snyder530)",551 and 511 and 480
same,"PLpro assay signal (source data Figure 2, single replicates)","SARS-CoV-2 PLpro; Log(M) -5.79588, listed as 3 (Snyder530)",638 and 706 and 719
same,"PLpro assay signal (source data Figure 2, single replicates)","SARS-CoV-2 PLpro; Log(M) -6.09691, listed as 3 (Snyder530)",726 and 781 and 797
same,"PLpro assay signal (source data Figure 2, single replicates)","SARS-CoV-2 PLpro; Log(M) -6.49485, listed as 3 (Snyder530)",808 and 740 and 787
same,"PLpro assay signal (source data Figure 2, single replicates)","SARS-CoV-2 PLpro; Log(M) -6.79588, listed as 3 (Snyder530)",765 and 796 and 803
same,IC50,"SARS-CoV-2 PLpro; pH 7.3, read-out: IC50",6.4 µM
same,inhibition of virus replication,SARS-CoV-2,failed
Nc1cc(C(=O)Nc2cccc3ccccc23)cc(C(F)(F)F)c1 [Compound 4],IC50,SARS-CoV-2 PLpro; IC50,43.2 ± 9.4 µM
same,"PLpro assay signal (source data Figure 2, single replicates)","SARS-CoV-2 PLpro; Log(M) -0.30103, listed as 4 (Snyder550)",498 and 310 and 468
same,"PLpro assay signal (source data Figure 2, single replicates)","SARS-CoV-2 PLpro; Log(M) -0.60206, listed as 4 (Snyder550)",426 and 463 and 490
same,"PLpro assay signal (source data Figure 2, single replicates)","SARS-CoV-2 PLpro; Log(M) -1, listed as 4 (Snyder550)",617 and 632 and 562
same,"PLpro assay signal (source data Figure 2, single replicates)","SARS-CoV-2 PLpro; Log(M) -1.30103, listed as 4 (Snyder550)",679 and 720 and 747
same,"PLpro assay signal (source data Figure 2, single replicates)","SARS-CoV-2 PLpro; Log(M) -1.69897, listed as 4 (Snyder550)",956 and 920 and 944
same,"PLpro assay signal (source data Figure 2, single replicates)","SARS-CoV-2 PLpro; Log(M) -2, listed as 4 (Snyder550)",1073 and 1048 and 930
same,"PLpro assay signal (source data Figure 2, single replicates)","SARS-CoV-2 PLpro; Log(M) -2.39794, listed as 4 (Snyder550)",1192 and 1138 and 1087
same,"PLpro assay signal (source data Figure 2, single replicates)","SARS-CoV-2 PLpro; Log(M) -2.69897, listed as 4 (Snyder550)",1318 and 1220 and 924
same,"PLpro assay signal (source data Figure 2, single replicates)","SARS-CoV-2 PLpro; Log(M) -3.09691, listed as 4 (Snyder550)",1177 and 1051 and 1092
same,"PLpro assay signal (source data Figure 2, single replicates)","SARS-CoV-2 PLpro; Log(M) -3.39794, listed as 4 (Snyder550)",1045 and 1012 and 1221
same,EC50,"SARS-CoV-2; Severe acute respiratory syndrome coronavirus 2, Vero C1008, 24 h, read-out: EC50",1.7 ± 4.4 µM
same,inhibition of virus replication,SARS-CoV-2,inhibiting virus replication
same,Percent Spike Positive Cells,SARS-CoV-2; [Drug] 0.1 uM,75% and 100% and 88%
same,Percent Spike Positive Cells,SARS-CoV-2; [Drug] 1 uM,88% and 81% and 63%
same,Percent Spike Positive Cells,SARS-CoV-2; [Drug] 10 uM,0%
